Data from article PMC3480424, “The Metagenome-Derived Enzymes LipS and LipT Increase the Diversity of Known Lipases” (PLoS ONE, 2012).
Blank lines part the entries; values can stand above or below the compound they belong to.

Key:
LipT = target: T1, LipT (uncultured bacterium, UniProt K7QE48); test: spectrophotometric 4-nitrophenol release at […] nm; format: biochemical; conditions: 75°C, 0.1 M potassium phosphate pH 8.0
T1 construct: full ORF of 331 residues incl. predicted signal peptide (cleavage Ala21/Val22), C-terminal His6 (pET21a), E. coli BL21(DE3), Ni-NTA; about 36 kDa monomer, multimer (at least dimer)

LipS = target: T2, LipS (Symbiobacterium thermophilum, UniProt Q67MR3); test: pNP-decanoate hydrolysis, spectrophotometric at […] nm; format: biochemical; conditions: pNP-decanoate as substrate, 5 min preincubation, 70°C, 10 min
T2 construct: gene STH2045; full-length, 280 residues, C-terminal His6 (pET21a), E. coli BL21(DE3), Ni-NTA; dimer by SEC

[1] = test system: T3, LipS-WT (uncultured bacterium); test: X-ray crystal structure, […] Å; format: binding; conditions: active site next to S126 and H257, contact to D187; spermidine was added as crystallisation additive, residual density interpreted as spermidine; PDB code assigned by order of listing
T3 construct: crystallization construct LipS-WT with native N-terminus (disordered to about residue 35); space group P4, 4 molecules per asymmetric unit; dimer

[2] = target: LipS with His6-tag at the C-terminus (LipS-H6) (metagenome-derived (100% identity to Symbiobacterium thermophilum)); test: SEC; size exclusion chromatography during purification of LipS for crystallization; conditions not told (ref. 67)
[3] = target: LipT (metagenome-derived (97% identity to Thermus scotoductus)); test: SDS-PAGE after incomplete heat denaturation; 15% SDS-PAGE of purified LipT after 5 min at 95°C, Coomassie staining
[4] = target: wild-type LipS (LipS-WT) (metagenome-derived (100% identity to Symbiobacterium thermophilum)); test: SEC; size exclusion chromatography during purification of LipS for crystallization; conditions not told (ref. 67)

T2 sequence (Q67MR3 entry or part of it): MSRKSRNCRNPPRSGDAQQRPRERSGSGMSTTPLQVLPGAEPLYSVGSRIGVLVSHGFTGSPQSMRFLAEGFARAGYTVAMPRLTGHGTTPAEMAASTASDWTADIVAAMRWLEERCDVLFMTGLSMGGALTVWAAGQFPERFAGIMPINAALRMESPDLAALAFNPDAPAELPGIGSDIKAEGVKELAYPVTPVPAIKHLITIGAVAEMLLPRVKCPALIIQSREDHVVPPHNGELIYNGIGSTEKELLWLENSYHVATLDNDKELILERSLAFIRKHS
T1 sequence (K7QE48 1-328 limits assumed): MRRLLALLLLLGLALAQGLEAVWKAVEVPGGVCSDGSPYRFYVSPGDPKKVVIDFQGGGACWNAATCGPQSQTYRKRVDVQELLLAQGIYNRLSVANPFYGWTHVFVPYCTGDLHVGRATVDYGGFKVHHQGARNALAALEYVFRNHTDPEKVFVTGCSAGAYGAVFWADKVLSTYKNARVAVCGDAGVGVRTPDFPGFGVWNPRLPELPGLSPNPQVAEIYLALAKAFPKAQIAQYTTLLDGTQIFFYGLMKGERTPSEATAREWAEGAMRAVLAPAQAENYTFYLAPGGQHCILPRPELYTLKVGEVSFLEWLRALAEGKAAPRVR

Km (mol l^-1) (LipT): 1.1 • 10^−3 mol l^−1
Compound: CCCCCCCCCC(=O)Oc1ccc([N+](=O)[O-])cc1 [4-nitrophenol-decanoate (C10)]

Compound: NCCCCNCCCN [spermidine]
inhibition at 3 and 5 mM (LipS): shown to inhibit the activity of LipS with its substrate pNP-decanoate
X-ray crystal structure, 1.99 Å [1]: Spermidine was used as an additive to improve crystal quality

stoichiometry N [2]: 2
Compound: LipS with His6-tag at the C-terminus (LipS-H6) (enzyme)

stoichiometry N [3]: > 2
Compound: LipT (enzyme)

stoichiometry N [4]: 2
Compound: wild-type LipS (LipS-WT) (enzyme)
